The values below come from PubChem BioAssay (NCI).

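Method: 48-hour compound exposure of cells in 96-well plates, five concentrations, linear interpolation of endpoints. TGI is the concentration that stops growth completely.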

Among the test systems are HCT-116 colon; OVCAR-3 ovarian; UO-31 renal; A549 NSCLC; RXF 393 renal; OVCAR-5 ovarian; OVCAR-8 ovarian; K-562 leukemia; SK-MEL-5 melanoma; HCT-15 colon; 786-0 renal; SF-295 CNS; SK-OV-3 ovarian; KM12 colon; HOP-92 NSCLC; IGROV1 ovarian; EKVX NSCLC; SW-620 colon; HL-60(TB) leukemia.
Holding throughout (assay): DTP human tumour cell line panel, 48 h

As a reminder, the TGI is the concentration at which net growth stops. Read a high TGI as less potent growth arrest.

`CCOC(=O)[C@]12C(=C(c3ccccc3)O[C@H]3C=CCC[C@H]31)C(=O)C(=O)N2c1ccccc1`: the TGI with HCT-116 colon, with OVCAR-3 ovarian, with UO-31 renal, with A549 NSCLC, in the assay on RXF 393 renal and in the assay on OVCAR-5 ovarian was greater than 100 µM each time. The TGI in the assay with OVCAR-8 ovarian was greater than 100 µM; in the assay with K-562 leukemia it was 84.5 µM; in the assay with SK-MEL-5 melanoma, greater than 100 µM; in the assay on HCT-15 colon it was greater than 100 µM; with 786-0 renal it was greater than 100 µM; with SF-295 CNS, greater than 100 µM. The TGI in the assay with SK-OV-3 ovarian and with KM12 colon was greater than 100 µM throughout.
On to `N#CC(C(=O)/C(=N/NC(=O)c1ccccc1O)C(C#N)c1ccccc1)c1ccccc1` (stereo not given), for which the TGI with HOP-92 NSCLC, with HCT-116 colon, with OVCAR-3 ovarian, in the assay with UO-31 renal, in the assay on A549 NSCLC and in the assay with RXF 393 renal was greater than 100 µM throughout. For the same molecule, the TGI in the assay with OVCAR-8 ovarian, in the assay on HCT-15 colon, with 786-0 renal, in the assay on SF-295 CNS, in the assay with SK-OV-3 ovarian and in the assay on IGROV1 ovarian was greater than 100 µM each time. Besides, the TGI in the assay on EKVX NSCLC and with KM12 colon was greater than 100 µM each time.
With `NC(=O)c1cccc(C2OC(COP(=O)(O)O)C(O)C2O)c1` (stereo not given), the TGI in the assay with HCT-116 colon, in the assay with OVCAR-3 ovarian, in the assay with UO-31 renal, in the assay on A549 NSCLC, with RXF 393 renal and with OVCAR-5 ovarian was greater than 50 µM each time. Further, the TGI with OVCAR-8 ovarian, in the assay with SW-620 colon, in the assay with HL-60(TB) leukemia, with K-562 leukemia, with SK-MEL-5 melanoma and with HCT-15 colon was greater than 50 µM in each case. Further, the TGI in the assay with 786-0 renal, with SF-295 CNS, in the assay with SK-OV-3 ovarian, with IGROV1 ovarian, with EKVX NSCLC and with KM12 colon was greater than 50 µM each time.
Turning to `COc1ccc(N(CN2C(=O)CCC2C(=O)O)C(C)=O)cc1` (stereo not given), the TGI in the assay with HOP-92 NSCLC, with HCT-116 colon, in the assay on OVCAR-3 ovarian, with UO-31 renal, with A549 NSCLC and with OVCAR-5 ovarian was greater than 100 µM each time. Moreover, the TGI with OVCAR-8 ovarian, in the assay with SW-620 colon, in the assay with HL-60(TB) leukemia, with K-562 leukemia, in the assay with SK-MEL-5 melanoma and in the assay with HCT-15 colon was greater than 100 µM in each case. The TGI with 786-0 renal, with SF-295 CNS, in the assay with SK-OV-3 ovarian, with EKVX NSCLC and in the assay on KM12 colon was greater than 100 µM each time.
For the molecule `COc1ccccc1/C=C(\C#N)C(=O)c1ccccc1`, the TGI in the assay on HOP-92 NSCLC, in the assay with HCT-116 colon, in the assay with OVCAR-3 ovarian, in the assay on UO-31 renal, in the assay with A549 NSCLC and in the assay on OVCAR-5 ovarian was greater than 100 µM throughout. The TGI with OVCAR-8 ovarian, in the assay on SW-620 colon, with HL-60(TB) leukemia, with K-562 leukemia, in the assay on SK-MEL-5 melanoma and in the assay with HCT-15 colon was greater than 100 µM each time. The TGI in the assay on 786-0 renal, with SF-295 CNS, in the assay with SK-OV-3 ovarian, with IGROV1 ovarian, with EKVX NSCLC and in the assay with KM12 colon was greater than 100 µM in each case.
With `CC(=O)O[C@]12CCCCC1C1(O)C(O)CCCCC12` (stereo not given in full), the TGI with HCT-116 colon, in the assay with UO-31 renal, with A549 NSCLC, in the assay with RXF 393 renal, in the assay with OVCAR-8 ovarian and in the assay with SW-620 colon was greater than 100 µM in each case. Further, the TGI with HL-60(TB) leukemia, in the assay on K-562 leukemia, with SK-MEL-5 melanoma, in the assay with HCT-15 colon, in the assay with 786-0 renal and in the assay on SF-295 CNS was greater than 100 µM in each case. Moreover, the TGI with SK-OV-3 ovarian, in the assay with EKVX NSCLC and in the assay on KM12 colon was greater than 100 µM each time.
Consider `c1ccc2c(c1)Nc1ccccc1[P+]21c2ccccc2Nc2ccccc21`, for which the TGI was 1.05 µM in the assay on HCT-116 colon; 0.612 µM with OVCAR-3 ovarian; 23.3 µM with UO-31 renal; 3.29 µM in the assay on A549 NSCLC; 0.891 µM in the assay with RXF 393 renal; 2.04 µM in the assay with OVCAR-5 ovarian. Moreover, the TGI in the assay with OVCAR-8 ovarian was determined as 5.39 µM; in the assay on SW-620 colon, 3.42 µM; with HL-60(TB) leukemia, 0.485 µM; with K-562 leukemia it was 1.75 µM; in the assay with SK-MEL-5 melanoma, 0.31 µM; with HCT-15 colon, 24.5 µM. Also, the TGI with 786-0 renal stood at 2.87 µM; in the assay with SF-295 CNS it was 5.16 µM; with SK-OV-3 ovarian it was 0.869 µM; with EKVX NSCLC, 2.74 µM.
In the case of `NC(=O)C#CC#CC#CCO`, the TGI was 3.83 µM in the assay on HOP-92 NSCLC; 2.59 µM in the assay with HCT-116 colon; 3.49 µM with OVCAR-3 ovarian; 3.68 µM with UO-31 renal; 16.5 µM in the assay with A549 NSCLC; 3.66 µM in the assay with RXF 393 renal. Also, the TGI in the assay with OVCAR-5 ovarian was 33.1 µM; in the assay on OVCAR-8 ovarian, 3.42 µM; with SW-620 colon it was 3.33 µM; in the assay on HL-60(TB) leukemia, 3.01 µM; in the assay with K-562 leukemia it was 4.65 µM; with SK-MEL-5 melanoma, 3.78 µM. Besides, the TGI was determined as 3.5 µM with HCT-15 colon; 2.93 µM with 786-0 renal; 11.6 µM with SF-295 CNS; 25.5 µM in the assay on SK-OV-3 ovarian; 7.4 µM with IGROV1 ovarian; 12.2 µM with KM12 colon.
With `CN(C)CCC(O)(c1ccccc1)C(O)(CCN(C)C)c1ccccc1` (stereo not given), the TGI with OVCAR-3 ovarian, with UO-31 renal, in the assay on A549 NSCLC, with OVCAR-5 ovarian, with OVCAR-8 ovarian and with SW-620 colon was greater than 100 µM in each case. In addition, the TGI with K-562 leukemia, in the assay with SK-MEL-5 melanoma, with HCT-15 colon, in the assay with 786-0 renal, in the assay with SF-295 CNS and in the assay on SK-OV-3 ovarian was greater than 100 µM throughout. The concentration for total growth inhibition (TGI) in the assay with IGROV1 ovarian, with EKVX NSCLC and with KM12 colon was greater than 100 µM throughout.
